Laboratory results taken from ChEMBL document CHEMBL1149313, “Synthesis of classical, three-carbon-bridged 5-substituted furo[2,3-d]pyrimidine and 6-substituted pyrrolo[2,3-d]pyrimidine analogues as antifolates” (J Med Chem, 2004).

Legend:
[1] = system: CCRF-CEM; test: Growth inhibition in human CCRF-CEM cells assessed as cell growth relative to control; assay type: functional; set-up: scale not given: the % may be the effect or the level left
[2] = system: CCRF-CEM; test: Cell growth in human CCRF-CEM cells relative to control; assay type: functional
[3] = system: CCRF-CEM; test: Cell growth in human CCRF-CEM cells in presence of 5 uM thymidine and 10 uM deoxycytidine relative to control; assay type: functional
[4] = system: CCRF-CEM; test: Cell growth in human CCRF-CEM cells in presence of 10 uM hypoxanthine and 10 uM deoxycytidine relative to control; assay type: functional
[5] = system: CCRF-CEM; test: Cell growth in human CCRF-CEM cells in presence of thymidine and hypoxanthine and 10 uM deoxycytidine relative to control; assay type: functional
[6] = Cytotoxicity against human CCRF-CEM cells; assay type: cell-based
[7] = Cytotoxicity against human HL60 cells; assay type: cell-based; settings: HL-60 cells
[8] = Cytotoxicity against human K562 cells; assay type: cell-based
[9] = Cytotoxicity against human SR cells; assay type: cell-based
[10] = Cytotoxicity against human A549 cells; assay type: cell-based
[11] = Cytotoxicity against human NCI-H460 cells; assay type: cell-based
[12] = Cytotoxicity against human HOP92 cells; assay type: cell-based; settings: HOP-92 cells
[13] = Cytotoxicity against human HCT116 cells; assay type: cell-based; settings: HCT-116 cells
[14] = Cytotoxicity against human SW620 cells; assay type: cell-based; settings: SW-620 cells
[15] = system: SF-268; test: Cytotoxicity against SF268 cells; assay type: functional; settings: Homo sapiens
[16] = Cytotoxicity against human SK-MEL-28 cells; assay type: cell-based
[17] = Cytotoxicity against human 786-0 cells; assay type: cell-based
[18] = Cytotoxicity against human PC3 cells; assay type: cell-based; settings: PC-3 cells
[19] = Cytotoxicity against human MCF7 cells; assay type: cell-based
[20] = Cytotoxicity against human MDA-MB-435 cells; assay type: cell-based
[21] = Cytotoxicity against MDAN cells; assay type: cell-based, MDA-N; settings: human
[22] = molecular target: Thymidylate synthase (Homo sapiens, UniProt P04818); test: Inhibition of human recombinant thymidylate synthase
[23] = molecular target: Thymidylate synthase (Escherichia coli, UniProt C3SWJ7); test: Inhibition of Escherichia coli thymidylate synthase
[24] = molecular target: T1, Thymidylate synthase (Lactobacillus casei, UniProt P00469); test: Inhibition of Lactobacillus casei thymidylate synthase; set-up: species or system Lacticaseibacillus casei
T1 sequence (P00469 whole entry): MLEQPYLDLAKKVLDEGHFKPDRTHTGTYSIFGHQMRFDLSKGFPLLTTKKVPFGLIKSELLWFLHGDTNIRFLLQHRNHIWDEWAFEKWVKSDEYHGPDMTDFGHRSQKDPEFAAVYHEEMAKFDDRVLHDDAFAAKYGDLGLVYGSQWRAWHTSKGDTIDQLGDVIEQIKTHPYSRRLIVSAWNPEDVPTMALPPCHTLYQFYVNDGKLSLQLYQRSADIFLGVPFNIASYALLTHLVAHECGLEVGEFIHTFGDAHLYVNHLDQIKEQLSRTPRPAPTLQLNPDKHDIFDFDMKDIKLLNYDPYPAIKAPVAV

[25] = molecular target: T2, Folylpolyglutamate synthase, mitochondrial (Homo sapiens) (UniProt Q05932); test: Ratio of Vmax to Km of human recombinant cytosolic FPGS
T2 sequence (whole entry): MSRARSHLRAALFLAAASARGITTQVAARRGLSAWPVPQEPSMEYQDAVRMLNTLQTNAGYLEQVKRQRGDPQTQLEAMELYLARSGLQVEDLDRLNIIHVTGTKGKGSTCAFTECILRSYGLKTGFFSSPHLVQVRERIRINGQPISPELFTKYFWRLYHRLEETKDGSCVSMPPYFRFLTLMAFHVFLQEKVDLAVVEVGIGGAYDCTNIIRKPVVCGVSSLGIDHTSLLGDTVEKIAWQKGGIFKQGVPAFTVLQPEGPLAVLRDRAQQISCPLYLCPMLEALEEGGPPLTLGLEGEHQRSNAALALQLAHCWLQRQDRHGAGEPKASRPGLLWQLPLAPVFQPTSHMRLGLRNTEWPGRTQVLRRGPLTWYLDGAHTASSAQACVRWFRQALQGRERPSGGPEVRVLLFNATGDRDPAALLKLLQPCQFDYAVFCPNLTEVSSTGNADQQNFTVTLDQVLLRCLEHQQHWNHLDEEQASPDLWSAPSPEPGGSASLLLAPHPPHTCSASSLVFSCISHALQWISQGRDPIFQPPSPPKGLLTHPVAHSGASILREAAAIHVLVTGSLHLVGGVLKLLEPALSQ

[26] = system: CCRF-CEM; test: Growth inhibition of human CCRF-CEM cells at 1500 nM; assay type: functional
[27] = molecular target: T3, Dihydrofolate reductase (Homo sapiens, UniProt P00374)
T3 sequence (P00374 whole entry): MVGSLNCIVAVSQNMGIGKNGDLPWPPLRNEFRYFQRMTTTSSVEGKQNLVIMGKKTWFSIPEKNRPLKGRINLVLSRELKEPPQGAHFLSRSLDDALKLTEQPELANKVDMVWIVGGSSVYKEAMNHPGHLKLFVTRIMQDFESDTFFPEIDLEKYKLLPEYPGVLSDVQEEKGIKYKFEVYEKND
Description: Inhibition of human recombinant DHFR

[28] = molecular target: T4, Dihydrofolate reductase (Escherichia coli, UniProt P0ABQ4)
T4 sequence (P0ABQ4 whole entry): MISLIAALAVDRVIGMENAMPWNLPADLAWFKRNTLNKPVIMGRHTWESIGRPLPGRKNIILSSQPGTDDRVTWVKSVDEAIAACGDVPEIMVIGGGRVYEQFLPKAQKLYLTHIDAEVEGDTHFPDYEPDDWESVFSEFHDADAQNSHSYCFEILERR
Description: Inhibition of Escherichia coli DHFR

[29] = molecular target: Dihydrofolate reductase (Lactobacillus casei, UniProt P00381)
Description: Inhibition of Lactobacillus casei DHFR

[30] = system: CCRF-CEM; test: Cell growth in human CCRF-CEM cells at 30 nM in presence of 5 uM thymidine and 10 uM deoxycytidine relative to control; assay type: functional
[31] = system: CCRF-CEM; test: Cell growth in human CCRF-CEM cells at 30 nM in presence of 10 uM hypoxanthine and 10 uM deoxycytidine; assay type: functional
[32] = system: CCRF-CEM; test: Cell growth in human CCRF-CEM cells at 30 nM in presence of thymidine, hypoxanthine and 10 uM deoxycytidine; assay type: functional
[33] = substrate: Nc1nc(N)c2c(CCCc3ccc(C(=O)N[C@@H](CCC(=O)O)C(=O)O)cc3)coc2n1; test: Activity of human recombinant cytosolic FPGS
[34] = substrate: Nc1nc(N)c2c(CCCc3ccc(C(=O)N[C@@H](CCC(=O)O)C(=O)O)cc3)coc2n1; test: (§1) Activity of human recombinant cytosolic FPGS relative to aminopterin
[35] = substrate: Nc1nc(N)c2c(CCc3ccc(C(=O)N[C@@H](CCC(=O)O)C(=O)O)cc3)coc2n1; test: as §1

Thymidylate synthase (Homo sapiens, UniProt P04818), sequence (P04818 whole entry): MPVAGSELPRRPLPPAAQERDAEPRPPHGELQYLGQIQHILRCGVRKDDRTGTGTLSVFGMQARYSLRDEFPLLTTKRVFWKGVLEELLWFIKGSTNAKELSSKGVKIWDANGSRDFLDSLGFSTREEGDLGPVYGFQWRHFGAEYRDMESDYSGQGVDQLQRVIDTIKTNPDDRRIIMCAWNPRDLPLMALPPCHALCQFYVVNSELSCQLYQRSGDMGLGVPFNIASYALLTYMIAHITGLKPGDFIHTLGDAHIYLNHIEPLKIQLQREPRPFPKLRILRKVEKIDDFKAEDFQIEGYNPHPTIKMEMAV
Thymidylate synthase (Escherichia coli, UniProt C3SWJ7), sequence (C3SWJ7 whole entry): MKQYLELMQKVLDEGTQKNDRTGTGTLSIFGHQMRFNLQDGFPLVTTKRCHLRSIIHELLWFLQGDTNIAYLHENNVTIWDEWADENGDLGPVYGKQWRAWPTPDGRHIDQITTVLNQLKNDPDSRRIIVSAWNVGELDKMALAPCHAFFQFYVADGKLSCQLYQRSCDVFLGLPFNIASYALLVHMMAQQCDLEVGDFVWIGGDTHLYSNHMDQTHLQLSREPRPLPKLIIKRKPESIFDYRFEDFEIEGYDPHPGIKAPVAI
Dihydrofolate reductase (Lactobacillus casei, UniProt P00381), sequence (P00381 whole entry): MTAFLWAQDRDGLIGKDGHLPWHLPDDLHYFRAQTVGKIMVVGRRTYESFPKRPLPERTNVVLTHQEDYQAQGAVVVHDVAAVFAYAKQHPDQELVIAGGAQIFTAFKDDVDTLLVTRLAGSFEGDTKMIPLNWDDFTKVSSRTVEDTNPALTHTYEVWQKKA

Nc1ccn([C@H]2C[C@H](O)[C@@H](CO)O2)c(=O)n1 [DOXECITINE]
Activity [1]: 97%

Nc1nc(N)c2c(CCCc3ccc(C(=O)N[C@@H](CCC(=O)O)C(=O)O)cc3)coc2n1
Activity [2]: 21%
Activity [3]: 25.5%
Activity [4]: 20%
Activity [5]: 73.5%
GI50 [6]: 42.9 nM
GI50 [7]: 10 nM
GI50 [8]: 10 nM
GI50 [9]: 10 nM
GI50 [10]: 16.6 nM
GI50 [11]: 10 nM
GI50 [12]: 95900 nM
GI50 [13]: 10 nM
GI50 [14]: 10 nM
GI50 [15]: 648 nM
GI50 [16]: 100000 nM
GI50 [17]: 123 nM
GI50 [18]: 12.5 nM
GI50 [19]: 174 nM
GI50 [20]: 21.4 nM
GI50 [21]: 22.3 nM
IC50 [22]: > 18000 nM
IC50 [23]: > 180000 nM
IC50 [24]: > 100000 nM
Ratio [25]: 1.4
inhibition at 1.5 µM [26]: 80%
IC50 [27]: 9000 nM
IC50 [28]: 7000 nM
IC50 [29]: 11000 nM

Nc1nc(N)c2c(CCc3ccc(C(=O)N[C@@H](CCC(=O)O)C(=O)O)cc3)coc2n1
Ratio [25]: 0.07

Nc1nc(N)c2nc(CNc3ccc(C(=O)N[C@@H](CCC(=O)O)C(=O)O)cc3)cnc2n1
Ratio [25]: 0.22

Nc1nc2[nH]cc(CCc3ccc(C(=O)N[C@@H](CCC(=O)O)C(=O)O)cc3)c2c(=O)[nH]1 [PEMETREXED]
IC50 [22]: 19000 nM
IC50 [24]: 38000 nM

CN(Cc1cnc2nc(N)nc(N)c2n1)c1ccc(C(=O)N[C@@H](CCC(=O)O)C(=O)O)cc1 [METHOTREXATE]
Activity [30]: 16%
Activity [31]: 15.5%
Activity [32]: 74.5%
Activity [3]: 12.5%
Activity [4]: 13.5%
Activity [5]: 73.5%

B1: Folylpolyglutamate synthase, mitochondrial (Homo sapiens), Q05932 (protein)
chain: MSRARSHLRAALFLAAASARGITTQVAARRGLSAWPVPQEPSMEYQDAVRMLNTLQTNAGYLEQVKRQRGDPQTQLEAMELYLARSGLQVEDLDRLNIIHVTGTKGKGSTCAFTECILRSYGLKTGFFSSPHLVQVRERIRINGQPISPELFTKYFWRLYHRLEETKDGSCVSMPPYFRFLTLMAFHVFLQEKVDLAVVEVGIGGAYDCTNIIRKPVVCGVSSLGIDHTSLLGDTVEKIAWQKGGIFKQGVPAFTVLQPEGPLAVLRDRAQQISCPLYLCPMLEALEEGGPPLTLGLEGEHQRSNAALALQLAHCWLQRQDRHGAGEPKASRPGLLWQLPLAPVFQPTSHMRLGLRNTEWPGRTQVLRRGPLTWYLDGAHTASSAQACVRWFRQALQGRERPSGGPEVRVLLFNATGDRDPAALLKLLQPCQFDYAVFCPNLTEVSSTGNADQQNFTVTLDQVLLRCLEHQQHWNHLDEEQASPDLWSAPSPEPGGSASLLLAPHPPHTCSASSLVFSCISHALQWISQGRDPIFQPPSPPKGLLTHPVAHSGASILREAAAIHVLVTGSLHLVGGVLKLLEPALSQ
Km [33]: 0.3 µM
Vmax [34]: 0.42
Vmax [35]: 0.65
